Measured values from paper PMC3933009, “Identification and characterization of a galacturonic acid transporter from Neurospora crassa and its application for Saccharomyces cerevisiae fermentation processes” (Biotechnology for Biofuels, 2014).

Key:
Type in all cases: cell-based
[1] = biological target: T1, D-galacturonate reductase (GAAA) (Aspergillus niger, UniProt A8DRH9); experiment: bioconversion in engineered yeast, LC-MS/MS of L-galactonic acid; conditions: 90 μM D-GalA, pH 5.8, 30°C; endogenous NADPH; GAT-1 co-expressed; native yeast reductase background
T1 construct: codon-optimized gene, Cen6/leu2 vector with TDH3 promoter, expressed in S. cerevisiae with gat-1-GFP integrated
T1 sequence (A8DRH9 1-412): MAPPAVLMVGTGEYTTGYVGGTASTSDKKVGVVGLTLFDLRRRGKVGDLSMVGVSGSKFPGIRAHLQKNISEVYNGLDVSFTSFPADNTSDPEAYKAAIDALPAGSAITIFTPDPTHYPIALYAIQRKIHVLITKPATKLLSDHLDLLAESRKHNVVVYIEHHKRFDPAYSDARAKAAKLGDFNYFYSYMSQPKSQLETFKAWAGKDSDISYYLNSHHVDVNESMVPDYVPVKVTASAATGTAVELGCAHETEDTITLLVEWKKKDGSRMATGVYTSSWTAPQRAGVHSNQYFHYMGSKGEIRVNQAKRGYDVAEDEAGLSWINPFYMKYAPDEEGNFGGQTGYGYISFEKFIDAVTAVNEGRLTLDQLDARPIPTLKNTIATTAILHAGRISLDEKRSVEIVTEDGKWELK

[2] = biological target: T2, uronate dehydrogenase (UDH) (Agrobacterium fabrum, UniProt Q7CRQ0); experiment: bioconversion in engineered yeast, LC-MS/MS of meso-galactaric acid; conditions: 90 μM D-GalA, pH 5.8, 30°C; endogenous NAD+; GAT-1 co-expressed
T2 construct: open reading frame, Cen6/leu2 vector with TDH3 promoter, expressed in S. cerevisiae with gat-1-GFP integrated
T2 sequence (Q7CRQ0 1-265): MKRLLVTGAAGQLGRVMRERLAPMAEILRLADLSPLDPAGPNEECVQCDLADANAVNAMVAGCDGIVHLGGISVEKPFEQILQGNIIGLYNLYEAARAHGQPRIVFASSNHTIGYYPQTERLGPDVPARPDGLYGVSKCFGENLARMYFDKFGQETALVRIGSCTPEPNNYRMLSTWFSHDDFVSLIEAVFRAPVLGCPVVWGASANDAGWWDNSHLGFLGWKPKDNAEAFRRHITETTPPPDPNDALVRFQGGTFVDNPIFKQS

[3] = biological target: T3, quinate permease (NCU06026; quinate-Y) (Neurospora crassa, UniProt P11636); experiment: uptake by induced mycelia, WT versus deletion strain, MS detection; conditions: 90 μM quinic acid plus D-GalA, Vogel's salts, 25°C
T3 construct: gene qa-y; native protein in mycelia; wild type compared with deletion strain
T3 sequence (P11636 whole entry): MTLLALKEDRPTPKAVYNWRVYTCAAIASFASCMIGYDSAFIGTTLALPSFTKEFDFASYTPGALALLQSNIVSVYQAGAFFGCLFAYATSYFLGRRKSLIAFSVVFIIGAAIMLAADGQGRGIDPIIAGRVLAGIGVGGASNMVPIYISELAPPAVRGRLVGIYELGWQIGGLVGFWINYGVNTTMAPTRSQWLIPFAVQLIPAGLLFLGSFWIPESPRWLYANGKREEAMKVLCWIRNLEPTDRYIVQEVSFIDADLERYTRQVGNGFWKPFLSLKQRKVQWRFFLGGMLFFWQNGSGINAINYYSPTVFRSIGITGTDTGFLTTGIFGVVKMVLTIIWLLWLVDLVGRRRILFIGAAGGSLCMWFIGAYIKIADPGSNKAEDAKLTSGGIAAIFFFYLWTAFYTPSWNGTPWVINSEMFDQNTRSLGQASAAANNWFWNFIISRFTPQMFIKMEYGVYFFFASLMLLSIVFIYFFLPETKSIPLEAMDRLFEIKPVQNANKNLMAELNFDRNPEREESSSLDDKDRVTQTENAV

## O=C(O)[C@H]1OC(O)[C@H](O)[C@@H](O)[C@H]1O (stereo partly drawn) [D-GalA]
[1]
  bioconversion in engineered yeast, LC-MS/MS of L-galactonic acid: expression of the reductase resulted in a higher product yield (GAAA/GAT-1)
[2]
  bioconversion in engineered yeast, LC-MS/MS of meso-galactaric acid: GalAA production was enzyme (UDH)dependent

## O=C(O)[C@]1(O)C[C@@H](O)[C@@H](O)[C@H](O)C1 [quinic acid]
[3]
  uptake by induced mycelia, WT versus deletion strain, MS detection: almost completely unable to take up qa, indicating that it is the only physiologically relevant transporter
